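Following 48 hours of exposure in 96-well plates, responses at five concentrations were used to interpolate endpoints linearly. GI50 marks 50% less growth. At the TGI there is no net growth.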
Columns and labels:
Assay in all cases: inhibition of tumour cell growth, NCI panel, 48 h
786-0 renal = system: 786-0 renal
A498 renal = system: A498 renal
A549 NSCLC = system: A549 NSCLC
ACHN renal = system: ACHN renal
BT-549 breast = system: BT-549 breast
CCRF-CEM leukemia = system: CCRF-CEM leukemia
COLO 205 colon = system: COLO 205 colon
DU-145 prostate = system: DU-145 prostate
HCC-2998 colon = system: HCC-2998 colon
HCT-116 colon = system: HCT-116 colon
HCT-15 colon = system: HCT-15 colon
HL-60(TB) leukemia = system: HL-60(TB) leukemia
HOP-62 NSCLC = system: HOP-62 NSCLC
HOP-92 NSCLC = system: HOP-92 NSCLC
HS 578T breast = system: HS 578T breast
HT29 colon = system: HT29 colon
K-562 leukemia = system: K-562 leukemia
KM12 colon = system: KM12 colon
M14 melanoma = system: M14 melanoma
MALME-3M melanoma = system: MALME-3M melanoma
MCF7 breast = system: MCF7 breast
MDA-MB-435 = system: MDA-MB-435
MOLT-4 leukemia = system: MOLT-4 leukemia
NCI-H226 lung = system: NCI-H226 lung
NCI-H460 lung = system: NCI-H460 lung
NCI/ADR-RES ovarian = system: NCI/ADR-RES ovarian
OVCAR-3 ovarian = system: OVCAR-3 ovarian
OVCAR-5 ovarian = system: OVCAR-5 ovarian
OVCAR-8 ovarian = system: OVCAR-8 ovarian
RPMI-8226 leukemia = system: RPMI-8226 leukemia
RXF 393 renal = system: RXF 393 renal
SF-268 CNS = system: SF-268 CNS
SF-539 CNS = system: SF-539 CNS
SK-MEL-5 melanoma = system: SK-MEL-5 melanoma
SN12C renal = system: SN12C renal
SNB-19 CNS = system: SNB-19 CNS
SW-620 colon = system: SW-620 colon
T-47D breast = system: T-47D breast
TK-10 renal = system: TK-10 renal
U251 CNS = system: U251 CNS
UO-31 renal = system: UO-31 renal
CAKI-1 renal = system: CAKI-1 renal
EKVX NSCLC = system: EKVX NSCLC
LOX IMVI melanoma = system: LOX IMVI melanoma
MDA-MB-231 breast = system: MDA-MB-231 breast
NCI-H23 lung = system: NCI-H23 lung
PC-3 prostate = system: PC-3 prostate
SF-295 CNS = system: SF-295 CNS
SK-MEL-2 melanoma = system: SK-MEL-2 melanoma
SK-OV-3 ovarian = system: SK-OV-3 ovarian
SNB-75 CNS = system: SNB-75 CNS
SR leukemia = system: SR leukemia
UACC-257 melanoma = system: UACC-257 melanoma
UACC-62 melanoma = system: UACC-62 melanoma

O=C(O)c1cn(C2CC2)c2cc(N3CCN(S(=O)(=O)c4ccc(Cl)c(Cl)c4)CC3)c(F)cc2c1=O
GI50 (786-0 renal): 4.02 µM
TGI (786-0 renal): > 100 µM
GI50 (A498 renal): 2.91 µM
TGI (A498 renal): > 100 µM
GI50 (A549 NSCLC): 3.08 µM
TGI (A549 NSCLC): > 100 µM
GI50 (ACHN renal): 3.1 µM
TGI (ACHN renal): > 100 µM
GI50 (BT-549 breast): 2.98 µM
TGI (BT-549 breast): > 100 µM
GI50 (CCRF-CEM leukemia): 2.61 µM
TGI (CCRF-CEM leukemia): > 100 µM
GI50 (COLO 205 colon): 3.5 µM
TGI (COLO 205 colon): 11.9 µM
GI50 (DU-145 prostate): 4.31 µM
TGI (DU-145 prostate): > 100 µM
GI50 (HCC-2998 colon): 4.46 µM
TGI (HCC-2998 colon): > 100 µM
GI50 (HCT-116 colon): 3.86 µM
TGI (HCT-116 colon): > 100 µM
GI50 (HCT-15 colon): 3.3 µM
TGI (HCT-15 colon): > 100 µM
GI50 (HL-60(TB) leukemia): 2.04 µM
TGI (HL-60(TB) leukemia): 5.17 µM
GI50 (HOP-62 NSCLC): 4.77 µM
TGI (HOP-62 NSCLC): > 100 µM
GI50 (HOP-92 NSCLC): 1.54 µM
TGI (HOP-92 NSCLC): 5.71 µM
GI50 (HS 578T breast): 4.26 µM
TGI (HS 578T breast): > 100 µM
GI50 (HT29 colon): 3.77 µM
TGI (HT29 colon): > 100 µM
GI50 (K-562 leukemia): 3.92 µM
TGI (K-562 leukemia): > 100 µM
GI50 (KM12 colon): 3.62 µM
TGI (KM12 colon): > 100 µM
GI50 (M14 melanoma): 4.06 µM
TGI (M14 melanoma): > 100 µM
GI50 (MALME-3M melanoma): 2.3 µM
TGI (MALME-3M melanoma): 5.24 µM
GI50 (MCF7 breast): 2.84 µM
TGI (MCF7 breast): > 100 µM
GI50 (MDA-MB-435): 2.97 µM
TGI (MDA-MB-435): > 100 µM
GI50 (MOLT-4 leukemia): 4 µM
TGI (MOLT-4 leukemia): > 100 µM
GI50 (NCI-H226 lung): 3.58 µM
TGI (NCI-H226 lung): > 100 µM
GI50 (NCI-H460 lung): 3.66 µM
TGI (NCI-H460 lung): > 100 µM
GI50 (NCI/ADR-RES ovarian): 4.01 µM
TGI (NCI/ADR-RES ovarian): > 100 µM
GI50 (OVCAR-3 ovarian): 3.9 µM
TGI (OVCAR-3 ovarian): 44 µM
GI50 (OVCAR-5 ovarian): 4.14 µM
TGI (OVCAR-5 ovarian): > 100 µM
GI50 (OVCAR-8 ovarian): 3.33 µM
TGI (OVCAR-8 ovarian): > 100 µM
GI50 (RPMI-8226 leukemia): 2.53 µM
TGI (RPMI-8226 leukemia): 7.59 µM
GI50 (RXF 393 renal): 2.98 µM
TGI (RXF 393 renal): 9.51 µM
GI50 (SF-268 CNS): 4.77 µM
TGI (SF-268 CNS): > 100 µM
GI50 (SF-539 CNS): 3.39 µM
TGI (SF-539 CNS): > 100 µM
GI50 (SK-MEL-5 melanoma): 2.04 µM
TGI (SK-MEL-5 melanoma): 4.42 µM
GI50 (SN12C renal): 2.97 µM
TGI (SN12C renal): > 100 µM
GI50 (SNB-19 CNS): 3.25 µM
TGI (SNB-19 CNS): > 100 µM
GI50 (SW-620 colon): 4.05 µM
TGI (SW-620 colon): > 100 µM
GI50 (T-47D breast): 3.77 µM
TGI (T-47D breast): > 100 µM
GI50 (TK-10 renal): 4.31 µM
TGI (TK-10 renal): > 100 µM
GI50 (U251 CNS): 3.33 µM
TGI (U251 CNS): > 100 µM
GI50 (UO-31 renal): 2.58 µM
TGI (UO-31 renal): > 100 µM

N/C(=N\Nc1nc2cc([N+](=O)[O-])ccc2o1)c1ccccn1
TGI (786-0 renal): 1.93 µM
TGI (A498 renal): 3.6 µM
TGI (ACHN renal): 9.6 µM
TGI (BT-549 breast): 3.68 µM
TGI (CAKI-1 renal): 8.44 µM
TGI (DU-145 prostate): 1.11 µM
TGI (EKVX NSCLC): 0.202 µM
TGI (HCT-116 colon): 0.222 µM
TGI (HOP-62 NSCLC): 2.8 µM
TGI (HOP-92 NSCLC): 5.71 µM
TGI (HS 578T breast): > 100 µM
TGI (K-562 leukemia): > 100 µM
TGI (LOX IMVI melanoma): 3.68 µM
TGI (MALME-3M melanoma): 58.4 µM
TGI (MDA-MB-231 breast): 2.13 µM
TGI (MDA-MB-435): > 100 µM
TGI (NCI-H226 lung): 38 µM
TGI (NCI-H23 lung): 4.26 µM
TGI (NCI-H460 lung): 1.19 µM
TGI (NCI/ADR-RES ovarian): 4.45 µM
TGI (OVCAR-8 ovarian): 10.6 µM
TGI (PC-3 prostate): 6.14 µM
TGI (RPMI-8226 leukemia): 4.83 µM
TGI (RXF 393 renal): 0.497 µM
TGI (SF-268 CNS): 1.62 µM
TGI (SF-295 CNS): 14 µM
TGI (SF-539 CNS): 1 µM
TGI (SK-MEL-2 melanoma): 2.63 µM
TGI (SK-MEL-5 melanoma): 1.45 µM
TGI (SK-OV-3 ovarian): 6.38 µM
TGI (SN12C renal): 3.85 µM
TGI (SNB-75 CNS): 2.13 µM
TGI (SR leukemia): 0.0696 µM
TGI (SW-620 colon): > 100 µM
TGI (T-47D breast): 0.796 µM
TGI (TK-10 renal): 5.51 µM
TGI (U251 CNS): 1.23 µM
TGI (UACC-257 melanoma): 0.341 µM
TGI (UACC-62 melanoma): 1.54 µM

Source: PubChem BioAssay (NCI)
